Patent US20230277591A1 (JULIUS-MAXIMILIANS-UNIVERSITÄT WÜRZBURG, priority 2017, published 2023)
“Also recorded” adds a separate entry of the source.

Tests used:
[1] = tested on: MOLM-13 AML cells; experiment: MOLM-13 xenograft model of AML in NSG mice; type: in vivo, mouse
Protocol: (§1) All experiments were approved by the Institutional Animal Care and Use Committees of the participating institutions. NOD.Cg-Prkdc^scid Il2rg^tm1Wjl/SzJ (NSG) mice (female, 6-8 week old) were purchased from Charles River or bred in-house. Mice were inoculated with 1×10^6 ffluc_GFP^+ MOLM-13 AML cells by tail vein injection on day 0, and received a single dose of 5×10^6 T cells (in 200 µL of PBS/0.5% FCS) by tail vein injection on day 7. Crenolanib [15 mg/kg; 200 µL of 30% glycerol formal (Sigma Aldrich, Munich, Germany)] was administered intraperitoneally (i.p.) Monday-Friday for 3 consecutive weeks. AML progression/regression was assessed by serial bioluminescence imaging following i.p. administration of D-luciferin substrate (0.3 mg/g body weight) (Biosynth, Staad, Switzerland) using an IVIS Lumina imaging system (Perkin Elmer, Waltham, Massachusetts). Data was analyzed using Living Image software (Perkin Elmer).
as §1, with “Crenolanib [15 mg/kg; 200 µL of 30% glycerol formal (Sigma Aldrich, Munich, Germany)] was administered intraperitoneally (i.p.) Monday-Friday for 3 consecutive weeks.” left out

[2] = tested on: MOLM-13 AML cells; experiment: Flow cytometric analysis of surface expression (FLT3, CD33, CD123) after FLT3 inhibitor treatment, MOLM-13; type: cell-based, human; conditions: for time to decrease of FLT3 expression to baseline levels after withdrawal of drug: MOLM-13, midostaurin: baseline or slightly below baseline
Protocol: (§2) Cell surface expression of FLT3 (CD135) was analyzed using a conjugated mouse-anti-human-FLT3 mAb (clone 4G8, BD Pharmagin, BD Biosciences, Germany) and mouse IgG1 isotype control (BD Pharmagin). In brief, 1×10^6 cells were washed, resuspended in 100 µL PBS/0.5% fetal calf serum and stained with 5 µL of anti-FLT3 mAb or isotype for 30 minutes at 4° C.
A complete medium change was performed every 7 days, MOLM-13 cells adjusted to 1×10^6/mL medium and 2 mL of this cell suspension plated per well in […] (Costar, Corning, NJ). After 2-3 weeks of culture with 10 nM midostaurine, MOLM-13 cells were exposed to exponentially increasing concentration of midostaurine for next 8-10 weeks to reach 50 nM midostaurin.

[3] = tested on: FLT3 CAR-T cells
[4] = tested on: THP-1 AML cells; experiment: Flow cytometric analysis of FLT3 expression after FLT3 inhibitor treatment, THP-1; type: cell-based, human; conditions: THP-1, wild-type FLT3
Protocol: as §2

[5] = tested on: JeKo-1 mantle cell lymphoma; experiment: Flow cytometric analysis of FLT3 expression after FLT3 inhibitor treatment, JeKo-1; type: cell-based, human; conditions: JeKo-1, wild-type FLT3
Protocol: as §2

[6] = tested on: MV4;11 AML cells; experiment: Flow cytometric analysis of surface expression after FLT3 inhibitor treatment, MV4;11; type: cell-based, human
Protocol: as §2

[7] = tested on: K562 erythro-myeloid leukemia; experiment: Flow cytometric analysis of FLT3 expression after FLT3 inhibitor treatment, K562; type: cell-based, human; conditions: K562, wild-type FLT3
Protocol: as §2

[8] = tested on: MV4;11 AML cells; experiment: Antibody-dependent cellular cytotoxicity (ADCC) assay; type: cell-based, human; conditions: mAb 5000 ng/mL, PBMC 50:1, 24 h
Protocol: MV4;11 cells were plated at a concentration of 1×10^6/mL in 1 mL per well in 24-well plates (Costar, Corning, NJ).
MV4;11 AML cells transduced with firefly luciferase (ffluc) were utilized for ADCC assays. MV4;11 AML cells were pre-treated with FLT3 inhibitors for 7 days or were left untreated. Target cells were co-incubated with healthy donor derived PBMCs at an effector-to-target ratio of 50:1 in triplicate wells of 96-well flat-bottom plates in the presence of solvent control, IgG1 isotype control (5000 ng/mL) or anti-FLT3 BV10 mAb (5000 ng/mL) (Biolegend, London, UK). ADCC was determined in a bioluminescence-based assay after 24 hours^40. Luciferin substrate was added to the co-culture and the decrease in luminescence signal was measured using a luminometer (Tecan, Männedorf, Switzerland). The percentage of viable cells was calculated using the following formula: % viability = bioluminescence signal in the presence of effector cells and BV10 mAb (with or without FLT3 inhibitor pre-treatment) × 100 / bioluminescence signal in the control condition.

[9] = 4G8 CAR (Example 1), crenolanib 15 mg/kg i.p.

For `CO[C@@H]1[C@H](N(C)C(=O)c2ccccc2)C[C@H]2O[C@]1(C)n1c3ccccc3c3c4c(c5c6ccccc6n2c5c31)C(=O)NC4` [midostaurin], the “mice with leukemia reduction (response rate)” value ([1]; BV10 CAR (Example 3), midostaurin experiment, BL day 7 to day 11, n=4 per group) was 0%, the “MFI of FLT3 higher, mouse with lowest FLT3 expression vs mouse without drug” value ([1]; midostaurin 1 mg/kg i.p., bone marrow MOLM-13) was 30% and the “time to decrease of FLT3 expression to baseline levels after withdrawal of drug” value [2] was at most 2 days. For the same molecule, the “effect of the drug per se on (viability and) function of FLT3 CAR-T cells” value [3] was “not affected; also recorded: did not affect”.

With `CC1(COc2ccc3c(c2)ncn3-c2ccc3cccc(N4CCC(N)CC4)c3n2)COC1` [crenolanib] the “increase in FLT3 expression upon exposure” value [4] was “did not occur”, the “increase in FLT3 expression upon exposure” value [5] was “did not occur” and the “FLT3 expression upon exposure” value ([6]; MV4;11 (FLT3-ITD+/+)) was “increase”. The “CD33 expression on MV4;11” value ([6]; inhibitor-treated) was “not affected”, the “CD123 expression on MV4;11” value ([6]; inhibitor-treated) was “not affected” and the overall response rate ([1]; 4G8 CAR (Example 1), 5×10^6 T cells day 7, crenolanib 15 mg/kg i.p., n=8 per group) was 0%. The “AML cells in peripheral blood, bone marrow and spleen at experiment endpoint” value [1, 9] was “high degree of leukemia infiltration”, the antileukemia efficacy [1, 9] was “only a minute antileukemia effect” and the “FLT3 on MOLM-13 cells recovered from peripheral blood and bone marrow at experiment endpoint” value ([1]; crenolanib monotherapy 15 mg/kg i.p.) was “uniformly and strongly upregulated”. For the same molecule, the “increase in FLT3 expression upon exposure” value [7] was “did not occur”, the “FLT3 surface protein (MFI) compared to MOLM-13native” value ([2]; 10 nM midostaurin 2-3 weeks, 10 nM crenolanib 5 days, 1 nM quizartinib 5 days, p < 0.05) was “significantly higher levels” and the “time to decrease of FLT3 expression to baseline levels after withdrawal of drug” value [2] was at most 2 days. The “FLT3 expression upon re-exposure to the drug” value ([2]; MOLM-13 after withdrawal) was “increased again”, the “CD33 expression on MOLM-13” value ([2]; inhibitor-treated vs native) was “not affected” and the “CD123 expression on MOLM-13” value ([2]; inhibitor-treated vs native) was “not affected”. The “effect of the drug per se on (viability and) function of FLT3 CAR-T cells” value [3] was “not affected; also recorded: did not affect”.

B1: BV10 mAb: anti-FLT3 monoclonal antibody BV10 (Biolegend) used in ADCC assay (antibody, V domains shown)
VH: QVQLKQSGPGLVQPSQSLSITCTVSGFSLTNYGLHWVRQSPGKGLEWLGVIWSGGSTDYNAAFISRLSISKDNSKSQVFFKMNSLQADDTAIYYCARKGGIYYANHYYAMDYWGQGTSVTVSS
VL: DIVMTQSPSSLSVSAGEKVTMSCKSSQSLLNSGNQKNYMAWYQQKPGQPPKLLIYGASTRESGVPDRFTGSGSGTDFTLTISSVQAEDLAVYYCQNDHSYPLTFGAGTKLELKR
With B1 the “MV4;11 cells eliminated (ADCC)” value ([8]; crenolanib-treated MV4;11 (10 nM, 7 days)) was 39%, the “MV4;11 cells eliminated (ADCC)” value ([8]; midostaurin-treated MV4;11 (50 nM, 7 days)) was 26% and the “MV4;11 cells eliminated (ADCC)” value ([8]; quizartinib-treated MV4;11 (1 nM, 7 days)) was 46%. The “MV4;11 cells eliminated (ADCC)” value ([8]; without FLT3 inhibitor pre-treatment) was 13%.
